How the values were obtained:
human lyase = target: T1, human lyase (Homo sapiens, UniProt P05093); assay: Inhibition of human steroid C17,20 lyase (testicular microsomes); assay type: biochemical
T1 construct: microsomes were isolated from human, cynomolgus monkey, dog, rat or athymic nude mouse testicular tissue; from tissue; host or cells: human testis microsomes (therapeutic orchiectomies)
T1 sequence (P05093 1-508): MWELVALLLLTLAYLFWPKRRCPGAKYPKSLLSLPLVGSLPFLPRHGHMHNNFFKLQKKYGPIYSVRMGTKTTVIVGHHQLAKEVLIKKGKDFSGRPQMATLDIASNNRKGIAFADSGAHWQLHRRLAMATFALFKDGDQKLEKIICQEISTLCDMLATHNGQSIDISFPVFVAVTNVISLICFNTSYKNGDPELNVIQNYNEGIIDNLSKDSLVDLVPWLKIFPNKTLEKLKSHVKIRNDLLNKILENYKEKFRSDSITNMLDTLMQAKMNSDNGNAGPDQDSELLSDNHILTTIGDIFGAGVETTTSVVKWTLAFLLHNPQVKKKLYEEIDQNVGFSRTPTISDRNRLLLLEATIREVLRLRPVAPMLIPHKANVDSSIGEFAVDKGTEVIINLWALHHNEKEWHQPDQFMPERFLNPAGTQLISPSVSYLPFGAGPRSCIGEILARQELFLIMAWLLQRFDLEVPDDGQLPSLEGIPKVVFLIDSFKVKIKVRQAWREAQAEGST
Procedure: (§1) The activity of the present compounds as inhibitors of steroid C17,20 lyase was established using microsomal preparations of the steroid C17,20 lyase enzyme from human or laboratory animal testes. Human testes used for this purpose were obtained from therapeutic orchiectomies. Specifically, microsomes were isolated from human, cynomolgus monkey, dog, rat or athymic nude mouse testicular tissue. The compound to be tested was dissolved in dimethyl sulfoxide and diluted in 0.05M potassium phosphate buffer to give the desired concentrations of the test compound. The potassium phosphate buffer was at pH 7.4 for the human, monkey and dog lyase assays and at pH 7.2 for the rat and athymic nude mouse lyase assays. Assays also contained 1 mM NADPH, 5 mM glucose-6-phosphate, 1 IU/ml glucose-6-phosphate dehydrogenase (an NADPH regenerating system) and microsomal protein in a total volume of 0.2 mL. Control assays contained all components including dimethyl sulfoxide, but with no test compound. All assays were performed in duplicate. For determination of time dependent C17,20 lyase inactivation, the test compound was incubated with 20 to 60 μg/ml microsomal protein, buffer, and the NADPH regenerating system described above at 34° C. for 0 or 40 minutes. Aliquots (180 μl) were then removed and assayed for enzyme activity by addition to tritiated steroid substrate plus unlabeled steroid substrate to give a 200 μl total assay volume, and were subsequently incubated at 34° C. for 6 minutes. For determination of reversible inhibition by the test compound, the reaction was initiated by addition of substrate. The radiolabeled substrate used for human, cynomolgus monkey and dog lyase was [7-^3 H]-17α-hydroxypregnenolone, 11.2 Ci/mmole, 0.2 μCi total activity per assay. Unlabeled 17α-hydroxypregnenolone was added to give a total concentration of 1.0 μM or 0.3 μM for the human and monkey enzymes, and 0.08 μM for the canine enzyme. […] The radiolabeled substrate used for the rodent enzymes were [1,2-^3 H]-17α-hydroxyprogesterone (40-57 Ci/mmol; 0.2 μCi per assay). Unlabeled 17α-hydroxyprogesterone was added to give a total concentration of 0.1 μM for the rat enzyme (Km =0.1 μM) and 0.03 μM (Km =0.03 μM) for the athymic nude mouse enzyme. The total assay volume was 200 μl. The complete assay was incubated at 34° C. for 6 minutes. Each reaction was stopped by the addition of 5 ml of chloroform:methanol (2:1). Carrier steroids representing substrate and products and 0.8 ml of water were also added at this time. The carrier steroids for the human, monkey and dog lyase assays were 17α-hydroxypregnenolone, dehydroepiandrosterone and androstenediol. Carrier steroids for the rodent lyase assays were 17α-hydroxyprogesterone, androstenedione, and testosterone. The steroids were extracted by the method of Moore and Wilson (Methods in Enzymol., eds. O'Malley, B. W. and Hardman, J. G. 36, 1975, p. 466-474), the organic phase containing the steroids was evaporated using nitrogen gas, the residues dissolved in 18% tetrahydrofuran (v/v) in hexane, and the steroids were separated by HPLC on a Si60 (5 um) column (250×4 mm) using a gradient of 18-22% tetrahydrofuran (v/v) in hexane. Radioactivity in the steroid peaks was measured by a Radiomatic Model HS Flo-One detector.
The enzyme activity for each incubate was calculated from the percent conversion of substrate to products, and the results were expressed as percent inhibition of control. […] The Ki and kinact for time dependent inhibitors were determined by graphical analysis of Kitz-Wilson plots. When the compounds of the present invention were tested in the above procedure using human lyase, the following results were observed: […]

[1] = target: T2, cynomolgus monkey C17,20 lyase (Macaca fascicularis, UniProt Q2XVA1); assay: Inhibition of cynomolgus monkey steroid C17,20 lyase (testicular microsomes), time dependent, Kitz-Wilson; assay type: biochemical
T2 construct: microsomes were isolated from human, cynomolgus monkey, dog, rat or athymic nude mouse testicular tissue; from tissue; host or cells: cynomolgus monkey testis microsomes
T2 sequence (Q2XVA1 1-508): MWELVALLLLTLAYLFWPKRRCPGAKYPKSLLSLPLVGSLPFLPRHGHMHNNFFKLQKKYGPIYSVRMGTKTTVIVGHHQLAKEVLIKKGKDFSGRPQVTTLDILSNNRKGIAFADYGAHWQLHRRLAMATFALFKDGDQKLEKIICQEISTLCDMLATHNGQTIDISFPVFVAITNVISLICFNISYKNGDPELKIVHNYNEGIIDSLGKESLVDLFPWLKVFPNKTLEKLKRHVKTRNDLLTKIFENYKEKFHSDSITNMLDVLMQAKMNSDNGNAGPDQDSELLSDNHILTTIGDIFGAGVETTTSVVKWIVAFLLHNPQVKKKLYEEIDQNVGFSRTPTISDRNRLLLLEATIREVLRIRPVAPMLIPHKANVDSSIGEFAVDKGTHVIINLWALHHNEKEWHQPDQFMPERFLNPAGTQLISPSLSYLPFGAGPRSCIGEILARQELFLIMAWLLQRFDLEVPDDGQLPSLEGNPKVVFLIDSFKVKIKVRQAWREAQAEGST
Procedure: as §1, with “Carrier steroids representing substrate and products and 0.8 ml of water were also added at this time. The carrier steroids for the human, monkey and dog lyase assays were 17α-hydroxypregnenolone, dehydroepiandrosterone and androstenediol. Carrier steroids for the rodent lyase assays were 17α-hydroxyprogesterone, androstenedione, and testosterone. The steroids were extracted by the method of Moore and Wilson (Methods in Enzymol., eds. O'Malley, B. W. and Hardman, J. G. 36, 1975, p. 466-474), the organic phase containing the steroids was evaporated using nitrogen gas, the residues dissolved in 18% tetrahydrofuran (v/v) in hexane, and the steroids were separated by HPLC on a Si60 (5 um) column (250×4 mm) using a gradient of 18-22% tetrahydrofuran (v/v) in hexane.” left out
The enzyme activity for each incubate was calculated from the percent conversion of substrate to products, and the results were expressed as percent inhibition of control. […] The Ki and kinact for time dependent inhibitors were determined by graphical analysis of Kitz-Wilson plots. […]

| SMILES | inhibition at 1 µM (human lyase; preincubation 0 min) [%] | inhibition at 1 µM (human lyase; preincubation 40 min) [%] | inhibition at 10 µM (human lyase; preincubation 0 min) [%] | inhibition at 10 µM (human lyase; preincubation 40 min) [%] | Ki [1] [nM] | kinact [1] [s⁻¹] |
| --- | --- | --- | --- | --- | --- | --- |
| C[C@]12CC[C@H]3[C@@H](C=CC4=C(N)C(=O)CC[C@@]43C)[C@@H]1CC[C@@H]2OC1CC1 [Compound 1, 4-Amino-17β-(cyclopropyloxy)androsta-4,6-dien-3-one] | 69 | 84 | 95 | 98 | 339 | 0.0009 |
| C[C@]12CC[C@H]3[C@@H](CCC4=C(N)C(=O)CC[C@@]43C)[C@@H]1CC[C@@H]2OC1CC1 [Compound 2, 4-Amino-17β-(cyclopropyloxy)androst-4-en-3-one] | 79 | 86 | 96 | 99 | 286 | 0.0007 |

— patent US5486511A, “4-amino-17β-(cyclopropyloxy)androst-4-en-3-one, 4-amino-17β-(cyclopropylamino)androst-4-en-3-one and related compounds as C17-20 lyase and 5α-reductase” (Merrell Dow Pharmaceuticals Inc., priority 1994, dated 1996)
